Results published in ChEMBL document CHEMBL1255412, “New mutation in 23S rRNA gene associated with high level of azithromycin resistance in Neisseria gonorrhoeae” (2010).
Values after ≈ are worked out from the molar mass of the structure shown.

What was measured:
[1] = system: Neisseria gonorrhoeae; experiment: Antimicrobial activity against Neisseria gonorrhoeae isolate 3783; type: functional
[2] = system: Neisseria gonorrhoeae; experiment: Antimicrobial activity against high-level azithromycin resistant Neisseria gonorrhoeae isolate 1782 harboring A2143G mutation in peptidyltransferase loop in domain V of 23S rRNA alleles; type: functional
[3] = system: Neisseria gonorrhoeae; experiment: Antimicrobial activity against azithromycin resistant Neisseria gonorrhoeae isolate 2498 harboring C2599T mutation in peptidyltransferase loop in domain V of 23S rRNA alleles; type: functional
[4] = system: Neisseria gonorrhoeae; experiment: microbe, parasite or virus in culture
Description: Antimicrobial activity against azithromycin resistant Neisseria gonorrhoeae isolate harboring C2599T mutation in peptidyltransferase loop in domain V of 23S rRNA alleles and T insertion in mtrR gene promoter region

CC[C@H]1OC(=O)[C@H](C)[C@@H](O[C@H]2C[C@@](C)(OC)[C@@H](O)[C@H](C)O2)[C@H](C)[C@@H](O[C@@H]2O[C@H](C)C[C@H](N(C)C)[C@H]2O)[C@](C)(O)C[C@@H](C)CN(C)[C@H](C)[C@@H](O)[C@]1(C)O [AZITHROMYCIN] was tested, and the MIC [1] was 0.06 µg/mL (≈ 0.0801 µM), the MIC [2] was over 2050 µg/mL and the MIC [3] was 8 µg/mL (≈ 10.7 µM). It also gave an MIC [4] of 4 µg/mL (≈ 5.34 µM).
